Experimental findings from patent publication US20250051301A1, “MUTANT IDH1 AND IDH2 INHIBITOR AND APPLICATION THEREOF” (Betta Pharmaceuticals Co., Ltd, priority 2022, published 2025) are described below.

Data set [1] in a line: Pharmacokinetic detection in dogs. Format: in vivo. To be noted: beagle dogs. The procedure:
Adult beagle dogs (6-12 months of age) received a single dose of the compounds to be tested via intravenous administration (IV) or oral gavage administration (PO), respectively. In the IV single dose, 5% DMSO+5% Solutol+90% physiological saline was used as the excipient; the intravenous administration was carried out at a dose of 1 mg/kg (2 females and 2 males); and the venous blood collection time was 5 min, 15 min, 0.5 h, 1 h, 2 h, 4 h, 6 h, 8 h, 10 h and 24 h. In the PO single dose, 5% DMSO+5% Solutol+90% purified water was used as the excipient; the oral gavage administration was carried out at a dose of 5 mg/kg (2 females and 2 males); and the blood collection time was 15 min, 0.5 h, 1 h, 2 h, 4 h, 6 h, 8 h, 10 h and 24 h. Blood samples were collected in tubes containing EDTA anticoagulants and centrifuged at 4000 rpm at 4° C. for 10 min, and the supernatants were transferred to centrifuge tubes and stored at −20° C. For the detection, 30 μL of the plasma supernatant sample was taken, and 200 μL of an internal standard solution was added. The mixture was centrifuged at 3000 rpm for 10 minutes. Then, 100 μL of the supernatant solution was diluted with water at a 1:1 ratio and then injected with an injection volume of 5 μL. The concentration of the compounds to be tested in the plasma sample was analyzed by liquid chromatography-tandem mass spectrometry (LC-MS/MS). Plasma concentration-time data for individual animals were analyzed using Sciex Analyst software. The non-compartment model was introduced into the concentration analysis, and pharmacokinetic parameters (Cl_obs, Cmax and AUClast) of the compounds to be tested were calculated using WinNonlin (version 4.1; pHarsight) software.

In data set [2] the target is T1, IDH1^R132H (Homo sapiens, UniProt O75874, R132H). Kind of data set: 2-HG assay in cells (U87 cell line stably transfected with IDH1-R132H). Format: cell-based. The settings on record: 72 hours, numeric values, read-out: 2-HG in medium (IC50, nM) (IDH1^R132H). The procedure:
The compounds were detected for the inhibition of 2-HG production in the U87 cell line stably transfected with IDH1-R132H and the culture supernatant of TF-1 cells stably transfected with IDH2-R140Q. • (1) The cultured cells were collected by centrifugation, then suspended in a cell culture solution, counted, and seeded in a 96-well cell culture plate at 160 μL of cell suspension/well (20000 cells/well for U87-IDH1-R132H; 10000 cells/well for TF-1-IDH2-R140Q). • (2) A 96-well plate dilution was taken, and the compounds to be tested were diluted in a gradient manner in DMSO and a cell culture solution; and then 40 μL of the gradient-diluted compounds to be tested were added to the 96-well plate on which cells have been plated. […] Finally, the plate was cultured in a 37° C. incubator containing 5% CO2. • (3) After the compounds were incubated with the cells for 72 hours, the cell culture plate was taken out and centrifuged at 1500 rpm for 5 minutes, and then 100 μL of the medium supernatant was aspirated for 2-HG detection. • (4) 2-HG detection: the cell supernatant was diluted with purified water, 30 μL of the diluted sample was taken into a 1.5 ml centrifuge tube, and 200 μL of the internal standard solution was added. The mixture was mixed uniformly by vortex and centrifuged at 3200 rpm at 4° C. for 15 minutes. 100 μL of the supernatant solution was diluted with water at a 1:1 ratio and then detected by LC-MS. Analyte Peak Area was used to represent the 2-HG levels. • (5) Inhibition rate calculation, formula: % Inhibition=(1−Analyte Peak Area_sample/Analyte Peak Area_max)*100%, wherein Analyte Peak Area_sample represents the Analyte Peak Area of the sample to which the compound was added; Analyte Peak Area_max represents the average value of Analyte Peak Area of positive control wells (representing the absence of the compound). The curve fitting was performed using Graphpad Prism software to obtain IC50 values, and the test results were as shown in table 2.

Data set [3] addresses T1, IDH1^R132H. Briefly: Enzyme activity inhibition assay (fluorescence-based), IDH1 R132H. Format: biochemical. The settings on record: numeric values. As for the experimental part:
The inhibitory ability of the compounds on the enzyme activities of IDH1^R132H and IDH2^R140Qwas detected and expressed as the half inhibitory concentration (IC50) value. AG-881 was used as a positive control compound. In this experiment, compounds were screened on enzymes IDH1^R132H and IDH2^R140Q using a fluorescence-based method (initial concentration: 10000 nM, 3-fold dilution, 10 concentrations, and single-well detection). • (1) Preparation of 1×assay buffer. • (2) Preparation of compound concentration gradient: the compounds to be tested were assayed at an initial concentration of 10000 nM, with 3-fold dilution and 10 concentrations, and diluted into 200-fold the final concentration in 100% DMSO solution in a 384-well plate. • (3) 250 nL of DMSO and 250 nL of diluted compounds were transferred to a reaction plate with Echo 550. • (4) IDH2^R140Q enzyme detection: 25 μL of an IDH2^R140Q enzyme solution was added, and the mixture was incubated for 60 minutes; then 25 μL of a substrate solution was added, and the mixture was incubated for 150 minutes; then 25 μL of a detection buffer was added, and the mixture was shaken for 1 minute and incubated for 60 minutes; and finally, Synergy 2, Ex544/Em590 cutoff 590 was used for reading. • (5) IDH1^R132H enzyme detection: 40 μL of a mixture solution of an IDH1^R132H enzyme at the 1.25-fold final concentration and NADPH was added, and the mixture was incubated for 60 minutes; then 10 μL of a substrate solution at the 5-fold final concentration was added, and the mixture was incubated for 90 minutes; then 25 μL of a detection buffer at the 3-fold final concentration was added, and the mixture was shaken for 1 minute. and finally, Synergy 2, Ex544/Em590 cutoff 590 was used for reading. • (8) Inhibition rate calculation, formula: % Inhibition=(RFU_sample−RFU_min)/(RFU_max−RFU_min)*100%, wherein RFU-sample represents the fluorescence intensity of a sample; RFU-min represents the average value of negative control wells and represents the fluorescence intensity with an enzyme; and RFU-max represents the average value of positive control wells and represents the fluorescence intensity without an enzyme. The curve fitting was performed using Graphpad Prism software to obtain IC50 values, and the test results were as shown in table 2.

Setting [4] is: both sexes, dog, plasma, PO, 5 mg/kg.

T1 sequence (O75874 whole entry R132H): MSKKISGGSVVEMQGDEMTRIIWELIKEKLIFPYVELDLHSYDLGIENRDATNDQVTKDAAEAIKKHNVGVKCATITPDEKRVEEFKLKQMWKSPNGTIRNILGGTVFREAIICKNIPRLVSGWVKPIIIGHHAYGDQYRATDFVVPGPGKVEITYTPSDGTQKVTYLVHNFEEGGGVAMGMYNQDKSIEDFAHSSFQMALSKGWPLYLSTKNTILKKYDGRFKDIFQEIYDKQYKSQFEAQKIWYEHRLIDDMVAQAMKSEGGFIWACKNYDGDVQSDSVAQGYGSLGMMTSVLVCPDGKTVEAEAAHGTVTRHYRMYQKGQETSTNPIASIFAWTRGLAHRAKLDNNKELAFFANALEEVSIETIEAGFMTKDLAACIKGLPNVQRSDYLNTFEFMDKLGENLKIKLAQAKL

Compound `C[C@@H](Nc1nc(N[C@H](C)C(F)(F)F)nc(-c2cc(F)c(N)c(Cl)n2)n1)C(F)(F)F` [Example 5, 6-(5-amino-6-chloro-4-fluoropyridin-2-yl)-N^2,N^4-bis((R)-1,1,1-trifluoropropyl-2-yl)-1,3,5-triazine-2,4-diamine] registered a Cl_obs in data set [1] (IV, 1 mg/kg) of 0.306 L/h/kg. Moreover, the AUC(0-t) in data set [1] (both sexes, dog, plasma, IV, 1 mg/kg) was found to be 2.63 µg·h/mL; in data set [1] (setting [4]) it was 11.7 µg·h/mL. This compound returned a peak concentration (Cmax) in data set [1] (setting [4]) of 1.16 µg/mL. In addition, the 50% inhibitory concentration (IC50) amounted to 0.5 nM at IDH1^R132H [2] and 8 nM on IDH1^R132H [3].
